This note sets out measurements from patent US8952024B2, “Herbicidal pyrimidone derivatives” (E I du Pont de Nemours and Company, priority 2009, dated 2015).

Series [1] relates to barnyardgrass (Echinochloa crus-galli). As to the kind of experiment: Test E flooded paddy rice and weeds. The class given is in vivo. As to conditions: applied to paddy water, 21 days. From the text: (§1) Three plastic pots (ca. 16-cm diameter) for each application were partially filled with sterilized Tama silt loam soil comprising a 35:50:15 ratio of sand, silt and clay and 2.6% organic matter. Separate plantings for each of the three pots were as follows. Seeds from the U.S. of ducksalad (Heteranthera limosa), sedge (smallflower umbrella sedge, Cyperus difformis), ricefield bulrush (Scirpus mucronatus) and redstem (purple redstem, Ammannia coccinea), were planted into one 16-cm pot for each rate. Seeds from the U.S. of flatsedge (rice flatsedge, Cyperus iria), sprangletop (bearded (i.e. Brdd.) sprangletop, Leptochloa fascicularis), one stand of 9 or 10 water seeded rice seedlings (Oryza sativa cv. ‘Japonica—M202’), and two stands of 3 or 4 transplanted rice seedlings (Oryza sativa cv. ‘Japonica—M202’) were planted into one 16-cm pot for each rate. Seeds from the U.S. of barnyardgrass (Echinochloa crus-galli), late watergrass (Echinochloa oryzicola), early watergrass (Echinochloa oryzoides) and junglerice (Echinochloa colona) were planted into one 16-cm pot for each rate. Plantings were sequential so that crop and weed species were at the 2.0 to 2.5-leaf stage at time of treatment.
(§2) Potted plants were grown in a greenhouse with day/night temperature settings of 30/27° C., and supplemental balanced lighting was provided to maintain a 16-hour photoperiod. Test pots were maintained in the greenhouse until test completion.
(§3) At time of treatment, test pots were flooded to 3 cm above the soil surface, treated by application of test compounds directly to the paddy water, and then maintained at that water depth for the duration of the test. Effects of treatments on rice and weeds were visually evaluated by comparison to untreated controls after 21 days. Plant response ratings, summarized in Table E, are based on a scale of 0 to 100 where 0 is no effect and 100 is complete control. A dash (-) response means no test result.

Series [2] concerns ducksalad (Heteranthera limosa). Nature of the series: Test E flooded paddy rice and weeds. Type of series: in vivo. As to conditions: applied to paddy water, 21 days, scale 0 to 100.
From the text: as §1, §2, §3

Series [3] deals with early watergrass (Echinochloa oryzoides). Nature of the series: Test E flooded paddy rice and weeds. The note with it: applied to paddy water, 21 days, scale 0 to 100. Type of series: in vivo.
From the text: as §1, §2, §3

The subject of series [4] is flatsedge (rice flatsedge, Cyperus iria). As to the kind of experiment: Test E flooded paddy rice and weeds. The class given is in vivo. As to conditions: applied to paddy water, 21 days, scale 0 to 100.
From the text: as §1, §2, §3

The test system of series [5] is junglerice (Echinochloa colona). Nature of the series: Test E flooded paddy rice and weeds. The class given is in vivo. The note with it: applied to paddy water, 21 days, scale 0 to 100.
From the text: as §1, §2, §3

For series [6], the system named is late watergrass (Echinochloa oryzicola). Nature of the series: Test E flooded paddy rice and weeds. Type of series: in vivo. As to conditions: applied to paddy water, 21 days, scale 0 to 100.
From the text: as §1, §2, §3

Series [7] has as its system redstem (purple redstem, Ammannia coccinea). As to the kind of experiment: Test E flooded paddy rice and weeds. Type of series: in vivo. As to conditions: applied to paddy water, 21 days, scale 0 to 100.
From the text: as §1, §2, §3

Series [8] relates to ricefield bulrush (Scirpus mucronatus). As to the kind of experiment: Test E flooded paddy rice and weeds. The class given is in vivo. The note with it: applied to paddy water, 21 days, scale 0 to 100.
From the text: as §1, §2, §3

For series [9], the system named is sedge (smallflower umbrella sedge, Cyperus difformis). As to the kind of experiment: Test E flooded paddy rice and weeds. Type of series: in vivo. The note with it: applied to paddy water, 21 days, scale 0 to 100.
From the text: as §1, §2, §3

Series [10] deals with transplanted rice seedlings (Oryza sativa cv. ‘Japonica—M202’). Nature of the series: Test E flooded paddy rice and weeds. The class given is in vivo. As to conditions: applied to paddy water, 21 days, scale 0 to 100.
From the text: as §1, §2, §3

In series [11] the test system is water seeded rice seedlings (Oryza sativa cv. ‘Japonica—M202’). Nature of the series: Test E flooded paddy rice and weeds. As to conditions: applied to paddy water, 21 days, scale 0 to 100. Type of series: in vivo.
From the text: as §1, §2, §3

Broadly, the melting point is the temperature, or range, at which the solid turns liquid.

As to `COc1ccc(-n2c(-c3ccccc3)ncc(C(=O)C3=C(O)CCCC3=O)c2=O)cc1` [Compound 4, 5-[(2-hydroxy-6-oxo-cyclohexen-1-yl)carbonyl]-3-(4-methoxyphenyl)-2-phenyl-4(3H)-pyrimidinone], the “Plant response rating, Barnyardgrass, Flood” value in series [1] (125 g ai/ha, scale 0 to 100) turned out to be 0; in series [1] (250 g ai/ha, scale 0 to 100), 60; in series [1] (500 g ai/ha, scale 0 to 100 (0 no effect, 100 complete control)) it was 60. Moreover, the “Plant response rating, Ducksalad, Flood” value in series [2] (125 g ai/ha) stood at 90; in series [2] (250 g ai/ha), 100; in [2] (500 g ai/ha), 100. Also, the “Plant response rating, Watergrass, Early, Flood” value in [3] (125 g ai/ha) came out at 0; in series [3] (250 g ai/ha), 60; in series [3] (500 g ai/ha) it was 65. Also, the “Plant response rating, Flatsedge, Rice, Flood” value in series [4] (125 g ai/ha) is on record as 0; in [4] (250 g ai/ha), 40; in [4] (500 g ai/ha), 90. The figures for the “Plant response rating, Junglerice, Flood” value in [5] (125 g ai/ha), in series [5] (250 g ai/ha) and in series [5] (500 g ai/ha) were 0, 25 and 50, respectively. Further, the “Plant response rating, Watergrass, Late, Flood” value is reported as 0 in [6] (125 g ai/ha), 15 in series [6] (250 g ai/ha) and 60 in series [6] (500 g ai/ha). Moreover, the figures for the “Plant response rating, Redstem, Flood” value in [7] (125 g ai/ha), in series [7] (250 g ai/ha) and in [7] (500 g ai/ha) were 80, 80 and 85, respectively. Besides, the “Plant response rating, Bulrush, Ricefield, Flood” value in series [8] (125 g ai/ha) amounted to 40; in series [8] (250 g ai/ha), 80; in [8] (500 g ai/ha), 80. In addition, the “Plant response rating, Sedge, Umbrella, Flood” value in [9] (125 g ai/ha) is on record as 90; in series [9] (250 g ai/ha), 95; in series [9] (500 g ai/ha), 100. Moreover, the “Plant response rating, Rice, Transplanted, Flood” value in [10] (125 g ai/ha) was found to be 0; in [10] (250 g ai/ha), 0; in series [10] (500 g ai/ha), 15. In addition, the “Plant response rating, Rice, Water Seeded, Flood” value in series [11] (125 g ai/ha) amounted to 10; in [11] (250 g ai/ha) it was 20; in series [11] (500 g ai/ha), 50.
Regarding `O=C1CCCC(O)=C1C(=O)c1cnc(-c2ccccc2)n(Cc2ccccc2)c1=O` [Compound 17, 5-[(2-hydroxy-6-oxo-1-cyclohexen-1-yl)carbonyl]-2-phenyl-3-(phenylmethyl)-4(3H)-pyrimidinone], the melting point fell in the range of 57 to 58 °C.
